Measurements from article PMC3465515 (Nuclear medicine and biology, 2012).
Like-named read-outs stand apart in the source and are kept apart here.

Columns and labels:
[1] = assay type: in vivo, Sprague-Dawley rats; conditions: 1 h, Letrozole + PMSG treated
[2] = biodistribution of [18F]6 in immature female Sprague-Dawley rats; assay type: in vivo; conditions: 1 h
[3] = preliminary tissue distribution of [18F]6 in female C57BL/6 mice; assay type: in vivo; conditions: data not shown

C[C@]12CC[C@@H]3c4ccc(O)cc4CC[C@@]3(CC[18F])[C@@H]1CC[C@@H]2O [[^18F]6, 8β-(2-[^18F]fluoroethyl)estradiol]
percentage injected dose/gram, blood ([1]; DPN blocked (200 μg)): 0.17 ± 0.03 %ID/g
percentage injected dose/gram, blood ([1]; E2 blocked (estradiol 20 μg)): 0.19 ± 0.02 %ID/g
percentage injected dose/gram, blood ([1]; PPT blocked (200 μg)): 0.16 ± 0.03 %ID/g
percentage injected dose/gram, blood ([1]; 18 μCi iv): 0.23 ± 0.07 %ID/g
percentage injected dose/gram, bone ([1]; DPN blocked (200 μg)): 0.37 ± 0.07 %ID/g
percentage injected dose/gram, bone ([1]; E2 blocked (estradiol 20 μg)): 0.33 ± 0.02 %ID/g
percentage injected dose/gram, bone ([1]; PPT blocked (200 μg)): 0.34 ± 0.05 %ID/g
percentage injected dose/gram, bone ([1]; 18 μCi iv): 0.40 ± 0.10 %ID/g
percentage injected dose/gram, fat ([1]; DPN blocked (200 μg)): 0.53 ± 0.18 %ID/g
percentage injected dose/gram, fat ([1]; E2 blocked (estradiol 20 μg)): 0.50 ± 0.11 %ID/g
percentage injected dose/gram, fat ([1]; PPT blocked (200 μg)): 0.53 ± 0.16 %ID/g
percentage injected dose/gram, fat ([1]; 18 μCi iv): 0.49 ± 0.12 %ID/g
percentage injected dose/gram, heart ([1]; DPN blocked (200 μg)): 0.15 ± 0.02 %ID/g
percentage injected dose/gram, heart ([1]; E2 blocked (estradiol 20 μg)): 0.14 ± 0.01 %ID/g
percentage injected dose/gram, heart ([1]; PPT blocked (200 μg)): 0.14 ± 0.02 %ID/g
percentage injected dose/gram, heart ([1]; 18 μCi iv): 0.17 ± 0.03 %ID/g
percentage injected dose/gram, kidney ([1]; DPN blocked (200 μg)): 0.59 ± 0.11 %ID/g
percentage injected dose/gram, kidney ([1]; E2 blocked (estradiol 20 μg)): 0.55 ± 0.08 %ID/g
percentage injected dose/gram, kidney ([1]; PPT blocked (200 μg)): 0.51 ± 0.09 %ID/g
percentage injected dose/gram, kidney ([1]; 18 μCi iv): 0.66 ± 0.12 %ID/g
percentage injected dose/gram, liver ([1]; DPN blocked (200 μg)): 1.41 ± 0.22 %ID/g
percentage injected dose/gram, liver ([1]; E2 blocked (estradiol 20 μg)): 1.51 ± 0.13 %ID/g
percentage injected dose/gram, liver ([1]; PPT blocked (200 μg)): 1.40 ± 0.12 %ID/g
percentage injected dose/gram, liver ([1]; 18 μCi iv): 1.67 ± 0.31 %ID/g
percentage injected dose/gram, lung ([1]; DPN blocked (200 μg)): 0.36 ± 0.05 %ID/g
percentage injected dose/gram, lung ([1]; E2 blocked (estradiol 20 μg)): 0.38 ± 0.04 %ID/g
percentage injected dose/gram, lung ([1]; PPT blocked (200 μg)): 0.36 ± 0.06 %ID/g
percentage injected dose/gram, lung ([1]; 18 μCi iv): 0.41 ± 0.02 %ID/g
percentage injected dose/gram, muscle ([1]; DPN blocked (200 μg)): 0.13 ± 0.02 %ID/g
percentage injected dose/gram, muscle ([1]; E2 blocked (estradiol 20 μg)): 0.12 ± 0.01 %ID/g
percentage injected dose/gram, muscle ([1]; PPT blocked (200 μg)): 0.12 ± 0.02 %ID/g
percentage injected dose/gram, muscle ([1]; 18 μCi iv): 0.14 ± 0.03 %ID/g
percentage injected dose/gram, ovaries ([1]; DPN blocked (200 μg)): 0.32 ± 0.10 %ID/g
percentage injected dose/gram, ovaries ([1]; E2 blocked (estradiol 20 μg)): 0.30 ± 0.06 %ID/g
percentage injected dose/gram, ovaries ([1]; PPT blocked (200 μg)): 0.30 ± 0.05 %ID/g
percentage injected dose/gram, ovaries ([1]; 18 μCi iv): 0.34 ± 0.04 %ID/g
percentage injected dose/gram, spleen ([1]; DPN blocked (200 μg)): 0.12 ± 0.01 %ID/g
percentage injected dose/gram, spleen ([1]; E2 blocked (estradiol 20 μg)): 0.12 ± 0.07 %ID/g
percentage injected dose/gram, spleen ([1]; PPT blocked (200 μg)): 0.12 ± 0.02 %ID/g
percentage injected dose/gram, spleen ([1]; 18 μCi iv): 0.13 ± 0.16 %ID/g
percentage injected dose/gram, thymus ([1]; DPN blocked (200 μg)): 0.09 ± 0.02 %ID/g
percentage injected dose/gram, thymus ([1]; E2 blocked (estradiol 20 μg)): 0.10 ± 0.01 %ID/g
percentage injected dose/gram, thymus ([1]; PPT blocked (200 μg)): 0.08 ± 0.01 %ID/g
percentage injected dose/gram, thymus ([1]; 18 μCi iv): 0.10 ± 0.01 %ID/g
percentage injected dose/gram, uterus ([1]; DPN blocked (200 μg)): 0.22 ± 0.03 %ID/g
percentage injected dose/gram, uterus ([1]; E2 blocked (estradiol 20 μg)): 0.20 ± 0.04 %ID/g
percentage injected dose/gram, uterus ([1]; PPT blocked (200 μg)): 0.19 ± 0.02 %ID/g
percentage injected dose/gram, uterus ([1]; 18 μCi iv): 0.26 ± 0.07 %ID/g
percentage injected dose/gram, blood ([2]; DPN blocked (200 μg)): 0.22 ± 0.03 %ID/g
percentage injected dose/gram, blood ([2]; E2 blocked (estradiol 20 μg)): 0.25 ± 0.07 %ID/g
percentage injected dose/gram, blood ([2]; PPT blocked (200 μg)): 0.24 ± 0.06 %ID/g
percentage injected dose/gram, blood ([2]; 13 μCi iv): 0.22 ± 0.05 %ID/g
percentage injected dose/gram, bone ([2]; DPN blocked (200 μg)): 0.40 ± 0.04 %ID/g
percentage injected dose/gram, bone ([2]; E2 blocked (estradiol 20 μg)): 0.37 ± 0.04 %ID/g
percentage injected dose/gram, bone ([2]; PPT blocked (200 μg)): 0.43 ± 0.12 %ID/g
percentage injected dose/gram, bone ([2]; 13 μCi iv): 0.36 ± 0.04 %ID/g
percentage injected dose/gram, fat ([2]; DPN blocked (200 μg)): 0.58 ± 0.08 %ID/g
percentage injected dose/gram, fat ([2]; E2 blocked (estradiol 20 μg)): 0.58 ± 0.10 %ID/g
percentage injected dose/gram, fat ([2]; PPT blocked (200 μg)): 0.68 ± 0.19 %ID/g
percentage injected dose/gram, fat ([2]; 13 μCi iv): 0.55 ± 0.09 %ID/g
percentage injected dose/gram, heart ([2]; DPN blocked (200 μg)): 0.18 ± 0.03 %ID/g
percentage injected dose/gram, heart ([2]; E2 blocked (estradiol 20 μg)): 0.21 ± 0.04 %ID/g
percentage injected dose/gram, heart ([2]; PPT blocked (200 μg)): 0.19 ± 0.04 %ID/g
percentage injected dose/gram, heart ([2]; 13 μCi iv): 0.18 ± 0.04 %ID/g
percentage injected dose/gram, kidney ([2]; DPN blocked (200 μg)): 0.70 ± 0.10 %ID/g
percentage injected dose/gram, kidney ([2]; E2 blocked (estradiol 20 μg)): 0.78 ± 0.15 %ID/g
percentage injected dose/gram, kidney ([2]; PPT blocked (200 μg)): 0.78 ± 0.19 %ID/g
percentage injected dose/gram, kidney ([2]; 13 μCi iv): 0.64 ± 0.14 %ID/g
percentage injected dose/gram, liver ([2]; DPN blocked (200 μg)): 1.50 ± 0.20 %ID/g
percentage injected dose/gram, liver ([2]; E2 blocked (estradiol 20 μg)): 1.63 ± 0.26 %ID/g
percentage injected dose/gram, liver ([2]; PPT blocked (200 μg)): 1.54 ± 0.39 %ID/g
percentage injected dose/gram, liver ([2]; 13 μCi iv): 1.52 ± 0.23 %ID/g
percentage injected dose/gram, lung ([2]; DPN blocked (200 μg)): 0.33 ± 0.05 %ID/g
percentage injected dose/gram, lung ([2]; E2 blocked (estradiol 20 μg)): 0.39 ± 0.06 %ID/g
percentage injected dose/gram, lung ([2]; PPT blocked (200 μg)): 0.45 ± 0.12 %ID/g
percentage injected dose/gram, lung ([2]; 13 μCi iv): 0.39 ± 0.09 %ID/g
percentage injected dose/gram, muscle ([2]; DPN blocked (200 μg)): 0.15 ± 0.01 %ID/g
percentage injected dose/gram, muscle ([2]; E2 blocked (estradiol 20 μg)): 0.19 ± 0.05 %ID/g
percentage injected dose/gram, muscle ([2]; PPT blocked (200 μg)): 0.19 ± 0.05 %ID/g
percentage injected dose/gram, muscle ([2]; 13 μCi iv): 0.15 ± 0.03 %ID/g
percentage injected dose/gram, ovaries ([2]; DPN blocked (200 μg)): 0.33 ± 0.04 %ID/g
percentage injected dose/gram, ovaries ([2]; E2 blocked (estradiol 20 μg)): 0.44 ± 0.15 %ID/g
percentage injected dose/gram, ovaries ([2]; PPT blocked (200 μg)): 0.37 ± 0.13 %ID/g
percentage injected dose/gram, ovaries ([2]; 13 μCi iv): 0.30 ± 0.11 %ID/g
blocking of ovary uptake by estradiol, DPN or PPT (in words) ([2]; ovary): nor was it substantially blocked by any of the three agents
percentage injected dose/gram, spleen ([2]; DPN blocked (200 μg)): 0.15 ± 0.02 %ID/g
percentage injected dose/gram, spleen ([2]; E2 blocked (estradiol 20 μg)): 0.16 ± 0.03 %ID/g
percentage injected dose/gram, spleen ([2]; PPT blocked (200 μg)): 0.16 ± 0.05 %ID/g
percentage injected dose/gram, spleen ([2]; 13 μCi iv): 0.15 ± 0.03 %ID/g
percentage injected dose/gram, thymus ([2]; DPN blocked (200 μg)): 0.12 ± 0.02 %ID/g
percentage injected dose/gram, thymus ([2]; E2 blocked (estradiol 20 μg)): 0.13 ± 0.03 %ID/g
percentage injected dose/gram, thymus ([2]; PPT blocked (200 μg)): 0.12 ± 0.02 %ID/g
percentage injected dose/gram, thymus ([2]; 13 μCi iv): 0.12 ± 0.03 %ID/g
percentage injected dose/gram, uterus ([2]; DPN blocked (200 μg)): 0.23 ± 0.05 %ID/g
percentage injected dose/gram, uterus ([2]; E2 blocked (estradiol 20 μg)): 0.38 ± 0.25 %ID/g
percentage injected dose/gram, uterus ([2]; PPT blocked (200 μg)): 0.35 ± 0.15 %ID/g
percentage injected dose/gram, uterus ([2]; 13 μCi iv): 0.33 ± 0.14 %ID/g
tissue distribution (in words) [3]: elevated lung uptake
